Measured values from patent US11058642B2, “Tablets with improved friability” (TOWER LABORATORIES LTD, priority 2013, dated 2021).

Assays:
Format in all cases: physicochemical
[1] = Solubility in water of the tested materials; settings: neat material
Source text: In an attempt to understand what chemical properties of the tested materials are critical to improving friability, we looked at some of the physical properties of the tested materials.

[2] = Tablet friability, modified USP-NF <1216> (Erweka TA, 10 tablets, 25 rpm; % unbroken tablets)
Procedure: Friability was measured in a manner similar to that described in the USP-NF, Chapter <1216>. The USP-NF method was modified in that the number of tablet used and the method of calculation were changed as indicated here. Ten (10) tablets were placed in an Erweka TA friability apparatus. The tablets were tumbled at 25 rpm for the indicated number of minutes. The percentage of unbroken tablets is reported.

[3] = Tablet hardness (Schuleuniger-4M tablet hardness tester); settings: denture cleanser tablet (Table 1 formula, citric acid), additive 0.6%
Procedure: Tablets were compressed using ⅞″ round tooling on a Stokes F press. Compression force was adjusted to give the hardest possible tablet (limit set by capability of the press or by the appearance of tablet capping).
Hardness was measured using a Schuleuniger-4M tablet hardness tester.
Three (3) gram tablets were compressed using ⅞″ round tooling on a Stokes F press. Compression force was adjusted to give the hardest possible tablet (limit set by capability of the press or by appearance of tablet capping).
3.3 gram tablets were compressed using ⅞″ round tooling on a Stokes F press. As above, compression force was adjusted to give the hardest possible tablet (limit set by capability of the press or by appearance of tablet capping).
2.5 gram tablets were compressed using ⅞″ round tooling on a Stokes F press. As above, compression force was adjusted to give the hardest possible tablet (limit set by capability of the press or by appearance of tablet capping).

OCC(O)CO [Glycerin]
Solubility in Water (w/w %) [1]: 100% w/w %
Friability (% whole tablets) 2 min ([2]; denture cleanser tablet (Table 1 formula, citric acid), additive 0.6%, tumbled 2 min): 100 % whole tablets
Friability (% whole tablets) 4 min ([2]; denture cleanser tablet (Table 1 formula, citric acid), additive 0.6%, tumbled 4 min): 100 % whole tablets
Friability (% whole tablets) 6 min ([2]; denture cleanser tablet (Table 1 formula, citric acid), additive 0.6%, tumbled 6 min): 100 % whole tablets
Friability (% whole tablets) 8 min ([2]; denture cleanser tablet (Table 1 formula, citric acid), additive 0.6%, tumbled 8 min): 100 % whole tablets
Friability (% whole tablets) 10 min ([2]; denture cleanser tablet (Table 1 formula, citric acid), additive 0.6%, tumbled 10 min): 100 % whole tablets
Friability improvement ([2]; summary for denture cleanser tablet (Table 1 formula), material at 0.6%): Yes
Hardness [3]: 9.5 kp
